This experiment has as its target T1, quinoa 11S globulin (11S; chenopodin).
T1 construct: gene 11S globulin A; native, from defatted quinoa seed flour (seed origin Peru); alkaline extraction, pH 4.5 precipitation, size-exclusion FPLC; acidic (30-35 kDa) and basic (17-20 kDa) subunits disulfide-linked, about 55 kDa; isoform mixture not resolved; docking used amaranth 3qac as homologue
Kind of experiment: isothermal titration calorimetry. The note with it: distilled water pH 9, 25 °C, n 0.91. The format is binding, Chenopodium quinoa. An excerpt:
isothermal titration calorimetry on quinoa 11S globulin (11S; chenopodin)
(In general: In ITC the heat of successive injections is recorded.)

We go through one molecule from PMC11434796, “An Innovative Bio-Vehicle for Resveratrol and Tocopherol Based on Quinoa 11S Globulin—Nanocomplex Design and Characterization” (Pharmaceutics, 2024).

The structures appear in SMILES notation.

By Kd is commonly meant the free concentration of one partner at which half of the binding sites on the other are occupied at equilibrium, for simple one-to-one binding. In turn, `Oc1ccc(/C=C/c2cc(O)cc(O)c2)cc1` [RSV, 3,5,4′-trihydroxystilbene] registered an equilibrium dissociation constant (Kd) (protein 36.4 µM) of 48.2 ± 1 µM. The “Ka (M^-1)” value (same titration as the Kd) is “(2.1 ± 0.3) × 10^4”.
